Reference: patent US20240408175A1, “BMP9 OR AN AGONIST THEREOF AND ITS USES RELATED TO REDUCING METASTASIS OF CANCER” (THE UAB RESEARCH FOUNDATION, priority 2021, published 2024)
Residues, ends and D or L forms follow the SMILES beside them. *: point of attachment. Cbz = O=C(OCc1ccccc1)*

What was measured:
[1] = tested on: SOX2 promoter methylation; assay: Methylation-specific qPCR of SOX2 promoter; assay type: cell-based, human; conditions: for SOX2 promoter methylation, inhibitor alone: 5 μM
Procedure: Genomic DNA was extracted, and bisulfite conversion was performed on 500 ng of gDNA using the MethylAmp DNA modification kit according to manufacturer's instructions. Relative quantitative RT-PCR (qPCR) was performed with methylation-specific and unmethylation-specific primers (see Table 3).

[2] = tested on: SOX2; assay: SOX2 expression by Western blot / qRT-PCR in cancer cells; assay type: cell-based, human; conditions: for recovery in SOX2 repression by BMP2: PA1, 1 h pretreatment (5 μM DM, 3 μM ML347); for recovery in SOX2 repression by BMP2 / effect on SOX2 repression by BMP2: then BMP2 24 h; for effect on SOX2 repression by BMP9: 1 h pretreatment (5 μM SB431542, 3 μM ML347, 0.8 μM LDN193189), then BMP9 24 hours; for effect on SOX2 repression by BMP2: PA1, 1 h pretreatment (5 μM SB431542, 0.8 μM LDN193189); for SOX2 protein and mRNA expression: attached and anchorage-independent conditions; for SOX2 protein and RNA levels: 10 nM, 24 hours, PA1 (and OVCAR3) cells
Procedure: Lysate and RNA preparation: 100,000-300,000 cells were seeded in a poly-HEMA coated 6-well plate for indicated times in full serum unless indicated otherwise. Cells were collected by centrifugation and lysed with trizol for RNA extraction or direct 2× lysis buffer for protein lysates.
Xenograft data were analyzed using parametric statistics as described in the legends. Survival curves were analyzed with log-rank statistics. In vitro experiments were analyzed using parametric statistics (ANOVA global test with Dunnett's/Sidak multiple comparison test as post-hoc tests as applicable and described in legend) and presented as the mean±SEM. All real time PCR's are relative semi quantitative RT-PCR's (hereby referred to as qRT-PCR) and are a combined quantitation of a minimum of 3 independent biological trials assayed in triplicate with biological replicates represented as individual scatter dots in the graphs or as indicated in legends. In all cases, statistical significance was set at a threshold of p<0.05. All statistical analyses were conducted with GraphPad Prism Software Ver. 9.0 and specific statistical test information described in figure legends.

[3] = tested on: SOX2 promoter; assay: Chromatin immunoprecipitation (ChIP) at SOX2 promoter regions; assay type: cell-based, human; conditions: for SMAD3 occupancy at p1, p3, p4, p5, p6 (ChIP): 1 h treatment
Procedure: ChIP was carried out using a modified version of a previously described protocol (Medeiros et al., 2009). Cells were grown to 80% confluency in 150 mm culture dishes. Cells were fixed at room temperature in 1% Paraformaldehyde solution (dilute 8% PFA in serum free media to get 1%) and rocked for 10 minutes. 10×Glycine was added to the plate and allowed to sit for 5 minutes at room temperature. Cells were scraped down and cell suspension were transferred to a cold centrifuge tube for centrifugation at 720 RCF at 4° C. for 10 minutes. Cells were rinsed with 1X Phosphate buffer saline and centrifugation repeated. Cell pellet was next resuspended in lysis buffers described in (Medeiros et al., 2009) to obtain nuclei pellet. This was followed by chromatin sonication, using QSonica sonicator (model CL-188) for four cycles (30% amplitude for 15 secs ON and 30 secs OFF) to obtain DNA fragments with a length from 150 to 300 bp. 1/10th of the supernatant was stored as input control. ChIP was performed using Protein A magnetic beads (Dynabeads, Invitrogen #10001D) to couple […] ChIP-grade antibodies for SMAD1, SMAD3, H3K27me3, H3K4me3, or rabbit IgG antibody overnight at 4 °C. DNA was purified using the PureLink Quick PCR Purification kit (Thermo Fisher Cat #: K310001) and enrichment of DNA fragments analyzed via relative quantitative RT-PCR (qPCR) using ChIP primers (see Table 2) to specific locations. Negative and positive control regions were included in all analysis.

[4] = tested on: Phosphorylated SMAD1 (pSMAD1); assay: SMAD1 phosphorylation (Western blot); assay type: cell-based, human
[5] = tested on: HEY-T30 cells; assay: Flow cytometry, Annexin V / PI apoptosis; assay type: cell-based, human; conditions: 3D, 48 hours; 10 nM BMP9, 300 nM paclitaxel or combination
Procedure: 700,000 cells were seeded in 60 mm poly-hema coated culture dishes, followed by incubation with 300 nM paclitaxel and 10 nM BMP9 alone or in simultaneous combination for 48 hours. Cells were centrifuged and resuspended in 1×binding buffer, followed by incubation with Annexin V and PI according to the manufacturer's procedure manual. The stained cell suspension was added to FACS tubes containing 200 μl 1×binding buffer and measured by BD LSRFortessa flow cytometer. The data were analyzed using BD FACSDiva (Becton Dickinson, NJ, USA) software. Annexin V-positive and PI-negative cells were considered to be in the early apoptotic phase, Annexin V-negative and PI-positive cells were considered to be in the necrosis phase, cells having positive staining for both Annexin-V and PI were considered to undergo late apoptosis and cells negative for Annexin V and PI were considered to be live cells.

[6] = tested on: HEYT30 cells; assay: Paclitaxel cell viability with BMP9 in HEYT30 (FIG. 10, 13A); assay type: cell-based; conditions: Homo sapiens, read-out: paclitaxel IC50 concentration
[7] = tested on: HEYT30 cells; assay: CellTiter Glo 3D cell viability assay, paclitaxel with BMP9; conditions: read-out: paclitaxel IC50 concentration, 3D conditions
[8] = tested on: OC cells (PA1, OVCA420, and OVCAR3); assay: Live-dead analysis of anchorage-independent spheroids, TGF-β1/activin A; assay type: cell-based, human; conditions: 1 nM TGFβ1, 10 nM activin, 24 hrs
Procedure: (§1) For Live/Dead analysis under anchorage independence, 1,000 cells were seeded in 96-well hydrogel-coated ultra-low attachment (ULA) plates (Corning #4515) for times indicated. Growth factor treatment was done under low serum 2.5% FBS condition (Cells were plated in 10% FBS to allow spheroid formation before beginning treatment). Cells were then stained with 2 μM Calcein-AM and 4 μM Ethidium-homodimer for 30 min before imaging. z-stacked images were obtained using the Zeiss LSM700 Confocal microscope (Microscopy and Flow Cytometry Core, University of South Carolina) and NIKON A1 Confocal microscope (UAB High Resolution Imaging Facility). Fluorescent quantification was performed using ImageJ Fiji software to calculate the Corrected Total Cell Fluorescent (CTCF)=Integrated Density−(Area of selected cell×Mean fluorescence of background readings) per spheroid.

[9] = tested on: 1-kb SOX2 promoter reporter; assay: pGL3-SOX2 promoter-reporter luciferase assay in HEK293 cells; assay type: cell-based, human
Procedure: HEK293 cells were transfected with the pGL3-SOX2 promoter-luciferase reporter plasmid construct and SV40-renilla for 24h. […] According to the manufacturer's instruction, cells were collected and lysed in […] passive lysis buffer. To measure luciferase activity, […] of lysate was added to […] of dual Luciferase Assay Reagent, and luminescence was quantitated using a luminometer (Biotek).

[10] = tested on: PA1 cells; assay: Live/Dead analysis under anchorage independence (anoikis), PA1 cells; assay type: cell-based, human; conditions: 10 nM for 24 hrs after 48 hours anchorage independence
Procedure: as §1

Nc1ncn([C@@H]2O[C@H](CO)[C@@H](O)[C@H]2O)c(=O)n1 [50-Aza, 50-azacytidine]
BMP9-induced SOX2 promoter methylation ([1]; PA1, 5 μM 48 h pretreatment, then rhBMP9 24 h): abrogated | SOX2 promoter methylation, inhibitor alone ([1]; PA1 cells): minimal effect | SOX2 promoter methylation, inhibitor alone ([1]; SKOV3 cells, 48 hours): suppressed SOX2 promoter methylation significantly | SOX2 mRNA downregulation by BMP9 ([2]; PA1, 5 μM with 10 nM rhBMP9): suppressed | SOX2 mRNA, inhibitor alone ([2]; SKOV3 cells, 5 μM): concomitant increase | BMP9-induced SOX2 transcriptional repression ([2]; SKOV3 cells, 5 μM with 10 nM rhBMP9): repressed

c1cc(-c2cnn3cc(-c4ccc(OCCN5CCCCC5)cc4)cnc23)ccn1 [DM, Dorsomorphin]
recovery in SOX2 levels in the presence of BMP9 ([2]; PA1, 5 μM pretreatment 1 h, then rhBMP9 24 hours): 34.3% | recovery in SOX2 repression by BMP2 [2]: 23%

CC[C@H](C)n1cc(C)c2c(C(=O)NCc3c(C)cc(C)[nH]c3=O)cc(-c3ccc(N4CCNCC4)nc3)cc21 [GSK126]
SOX2 repression by BMP9 ([2]; 5 μM GSK126, multiple cell lines): abrogated

c1ccc2c(-c3cnn4cc(-c5ccc(N6CCNCC6)cc5)cnc34)ccnc2c1 [LDN193189]
increase of SOX2 protein levels at baseline in the absence of exogenous ligand ([2]; 0.8 μM LDN193189, PA1): 33 | effect on SOX2 repression by BMP9 [2]: blocked | effect on SOX2 repression by BMP2 [2]: blocked | BMP9-induced H3K27me3 occupancy on the SOX2 promoter (ChIP) ([3]; PA1, rhBMP9 + LDN193189): significantly reduced | BMP2- and BMP9-induced SMAD1/5 phosphorylation ([4]; 0.8 μM LDN193189, PA1 and OVCAR3): Full inhibition

CC(C)C[C@@H](C=O)NC(=O)[C@H](CC(C)C)NC(=O)[C@H](CC(C)C)NC(=O)OCc1ccccc1 [MG132] (Cbz-Leu-Leu-Leu-aldehyde)
effect on BMP's ability to repress SOX2 ([2]; PA1, 0.5 μM MG132 1 hour, then rhBMP2/9): No effect

COc1ccc(-c2cnc3c(-c4cccc5ncccc45)cnn3c2)cc1 [ML347]
baseline SOX2 levels in the absence of exogenous ligand ([2]; 3 μM ML347, PA1): increased | effect on SOX2 repression by BMP9 [2]: abrogated | recovery in SOX2 repression by BMP2 [2]: 72% | BMP9-induced phosphorylation of SMAD1 ([4]; 3 μM ML347): completely suppressed | suppression of BMP2-induced SMAD1 phosphorylation ([4]; 3 μM ML347): 40%

NC(=O)c1ccc(-c2nc(-c3ccc4c(c3)OCO4)c(-c3ccccn3)[nH]2)cc1 [SB431542]
TGF-β1-induced SOX2 increases ([2]; 5 μM SB431542 1 h, then 400 pM TGF-β1 24 h): suppressed | effect on SOX2 repression by BMP9 [2]: did not significantly alter | effect on SOX2 repression by BMP2 [2]: did not alter | TGF-β1-induced H3K4me3 enrichment (ChIP) ([3]; PA1, TGF-β1 + SB431542): abrogated | pSMAD1 in response to BMP2 and -9 ([4]; 5 μM inhibitor): no effects

CC(=O)O[C@H]1C(=O)[C@@]2(C)[C@H]([C@H](OC(=O)c3ccccc3)[C@]3(O)C[C@H](OC(=O)[C@H](O)[C@@H](NC(=O)c4ccccc4)c4ccccc4)C(C)=C1C3(C)C)[C@]1(OC(C)=O)CO[C@@H]1C[C@@H]2O [paclitaxel]
apoptosis in cells [5]: 12.8% | IC50 ([6]; 24-hour pretreatment 1 nM BMP9, then combination 48 hours): 90.8 nM | IC50 ([6]; 24-hour pretreatment 5 nM BMP9, then combination 48 hours): 22.6 nM | IC50 ([6]; 24-hour pretreatment 10 nM BMP9, then combination 48 hours): 4.1 nM | IC50 ([6]; 48 h, simultaneous 1 nM BMP9, 48 hours): 91.7 nM | IC50 ([6]; 48 h, simultaneous 5 nM BMP9, 48 hours): 89 nM | IC50 ([6]; 48 h, simultaneous 10 nM BMP9, 48 hours): 73 nM | IC50 ([6]; 48 h, untreated control (no BMP9), simultaneous series, 48 hours): 107 nM | IC50 ([6]; untreated control (no BMP9), 24-hour pretreatment series): 113 nM | IC50 ([7]; 24-hour pretreatment 5 nM BMP9): 286 nM | IC50 ([7]; 24-hour pretreatment 10 nM BMP9): 211 nM

TGF-β1: transforming growth factor β1 ligand
live/dead ratio of spheroids [8]: increased | luciferase activity of SOX2 promoter reporter ([9]; TGF-β1 400 pM, 24 h): increased | SOX2 protein and mRNA expression [2]: increased | SMAD3 occupancy at p1, p3, p4, p5, p6 (ChIP) [3]: consistent SMAD3 enrichment | H3K4me3 at SMAD3 motifs p1, p3, p4, p5, p6 (ChIP) ([3]; PA1, 1-h TGF-β1): enrichment

activin A: activin A, TGF-β family member
luciferase activity of SOX2 promoter reporter ([9]; 10 nM activin A, 24 hours): increased | SOX2 protein and mRNA expression [2]: increased | SMAD3 occupancy at p1, p3, p4, p5, p6 (ChIP) [3]: occupied by SMAD3

B1: BMP10: recombinant human BMP10, highest sequence homology to BMP9 (protein, UniProt O95393 317-424, looked up)
Bone morphogenetic protein 10: NAKGNYCKRTPLYIDFKEIGWDSWIIAPPGYEAYECRGVCNYPLAEHLTPTKHAIIQALVHLKNSQKASKACCVPTKLEPISILYLDKGVVTYKFKYEGMAVSECGCR
anoikis [10]: did not alter | SOX2 protein and RNA levels [2]: did not alter | activation of SMAD1/5 [4]: failed to activate

B2: BMP4: recombinant human BMP4, BMP ligand (protein, UniProt P12644 293-408, looked up)
Bone morphogenetic protein 4: SPKHHSQRARKKNKNCRRHSLYVDFSDVGWNDWIVAPPGYQAFYCHGDCPFPLADHLNSTNHAIVQTLVNSVNSSIPKACCVPTELSAISMLYLDEYDKVVLKNYQEMVVEGCGCR
decrease of live-to-dead cell ratio [10]: 1.93 | SOX2 protein and RNA levels [2]: downregulation
